The values that follow come from article PMC9577195, “Pharmacokinetics, bioavailability, and plasma protein binding study of glytrexate, a novel multitarget antifolate” (Frontiers in Pharmacology, 2022).

One data set has as its system KB tumor cells. Also on record: method as in Xing et al., 2017. The following applies: positive control, ref Xing et al., 2017, read-out: IC50, inhibitory action on KB tumor cells; cited from earlier work.
Data set [1] in a line: Pharmacokinetics and bioavailability in rats after single oral and intravenous doses. It is filed as in vivo, Sprague-Dawley rats. The following applies: rat, pemetrexed 20 mg/kg vs glytrexate 25 mg/kg.
The next data set has as its system human plasma proteins. Also on record: method as in Robinson et al., 2004. The following applies: ref Robinson et al., 2004; cited from earlier work.
Details of data set [2]: method as in Pangeni et al., 2018. To be noted: rat, ref Pangeni et al., 2018, cited from earlier work.

The term IC50 denotes the concentration at which inhibition is half-maximal. As to `Nc1nc2[nH]cc(CCc3ccc(C(=O)N[C@@H](CCC(=O)O)C(=O)O)cc3)c2c(=O)[nH]1` [pemetrexed], the IC50 in the data set on KB tumor cells was 70 nM. Also, the “oral AUC of pemetrexed relative to oral glytrexate” value in data set [1] is on record as “approximately 12 fold”. Further, the “human plasma protein binding rate” value in the data set with human plasma proteins was 81%. Moreover, the “AUC after intravenous administration” value in data set [2] (intravenous 10 mg/kg) was 31.3 ± 5.34 μg⋅h/mL. Besides, the “T1/2 after intravenous administration” value in data set [2] (intravenous) is 34.4 ± 4.26 min. Further, the “AUC after oral administration” value in data set [2] (oral 20 mg/kg) is listed as 7.55 ± 0.938 μg⋅h/mL. For the same compound, in data set [2], the oral bioavailability is recorded as 12.0 ± 1.45%.
